pEC50: −log10 of the molar value.
Columns and labels:
[1] = tested on: tissue strips obtained from Landrace pig bladders; assay: Functional potassium channel opening activity in isolated bladder strips (field-stimulated twitch); details: for pEC50 / Emax: Sus scrofa; for pEC50: amount causing 50% of the agent's maximal response, read-out: ED50 (the source's name); for Emax: maximal efficacy relative to P1075, field stimulation 0.05 Hz
Method: Compounds were evaluated for functional potassium channel opening activity using tissue strips obtained from Landrace pig bladders.
Landrace pig bladders were obtained from female Landrace pigs of 930 kg. Landrace pigs were euthanized with an intraperitoneal injection of pentobarbital solution, Somlethal®, J. A. Webster Inc., Sterling Mass. The entire bladder was removed and immediately placed into Krebs Ringer bicarbonate solution (composition, mM: NaCl, 120; NaHCO3, 20; dextrose, 11; KCl, 4.7; CaCl2, 2.5; MgSO4, 1.5; KH2PO4, 1.2; K2EDTA, 0.01, equilibrated with 5% CO2/95% O2pH 7.4 at 37° C.). Propranolol (0.004 mM) was included in all of the assays to block β-adrenoceptors. The trigonal and dome portions were discarded. Strips 3-5 mm wide and 20 mm long were prepared from the remaining tissue cut in a circular fashion. The mucosal layer was removed. One end was fixed to a stationary glass rod and the other to a Grass FT03 transducer at a basal preload of 1.0 gram. Two parallel platinum electrodes were included in the stationary glass rod to provide field stimulation of 0.05 Hz, 0.5 milli-seconds at 20 volts. This low frequency stimulation produced a stable twitch response of 100-500 centigrams. Tissues were allowed to equilibrate for at least 60 minutes and primed with 80 mM KCl. A control concentration response curve (cumulative) was generated for each tissue using the potassium channel opener P1075 as the control agonist. […] After a 60 minute rinsing period, a concentration response curve (cumulative) was generated for the test agonist in the same fashion as that used for the control agonist P1075. The maximal efficacy of each compound (expressed as % relative to P1075) is reported. The amount of agent necessary to cause 50% of the agent's maximal response (ED50) was calculated using “ALLFIT” (DeLean et al., Am. J. Physiol., 235, E97 (1980)), hereby incorporated by reference. Agonist potencies were also expressed as an index relative to P1075. The index was calculated by dividing the ED50 for P1075 by the ED50 for the test agonist in a given tissue. Each tissue was used for only one test agonist, and the indices obtained from each tissue were averaged to provide an average index of potency.

[2] = tested on: primary cultured guinea-pig urinary bladder (GPB) cells; assay: Membrane hyperpolarization (MHP) assay, DiBAC(4)3 / FLIPR; format: cell-based; details: Cavia porcellus; membrane hyperpolarization in guinea-pig bladder cells
Method: Compounds were evaluated for potassium channel opening activity using primary cultured guinea-pig urinary bladder (GPB) cells.
For the preparation of urinary bladder smooth muscle cells, urinary bladders were removed from male guinea-pigs (Hartley, Charles River, Wilmington, Mass.) weighing 300-400 g and placed in ice-cold Ca^2+-free Krebs solution (composition, mM: KCl, 2.7; KH2PO4, 1.5; NaCl, 75; Na2HPO4, 9.6; Na2HPO4.7H2O, 8; MgSO4, 2; glucose, 5; HEPES, 10; pH 7.4). Cells were isolated by enzymatic dissociation as previously described with minor modifications (Klockner and Isenberg, Pflugers Arch. (1985), 405, 329-339), hereby incorporated by reference. The bladder was cut into small sections and incubated in 5 mL of the Kreb's solution containing 1 mg/mL collagenase (Sigma, St. Louis, Mont.) and 0.2 mg/mL pronase (Calbiochem, La Jolla, Calif.) with continuous stirring in a cell incubator for 30 minutes. The mixture was then centrifuged at 1300× g for 5 minutes, and the pellet resuspended in Dulbecco's PBS (GIBCO, Gaithersburg, Md.) and recentrifuged to remove residual enzyme. The cell pellet was resuspended in 5 mL growth media (composition: Dulbecco's modified Eagle's medium supplemented with 10% fetal bovine serum, 100 units/mL penicillin, 100 units/mL streptomycin and […] amphotericin B) and further dissociated by pipetting the suspension through a flame-polished Pasteur pipette and passing it through a polypropylene mesh membrane (Spectrum, Houston, Tex.). The cell density was adjusted to 100,000 cells/mL by resuspension in growth media. Cells were plated in clear-bottomed black 96-well plates (Packard) for membrane potential studies at a density of 20,000 cells/well and maintained in a cell incubator with 90% air:10% CO2 until confluent. Cells were confirmed to be of smooth muscle type by cytoskeletal staining using a monoclonal mouse anti human-α-smooth muscle actin (Biomeda, Foster City, Calif.).
Functional activity at potassium channels was measured by evaluating changes in membrane potential using the bis-oxonol dye DiBAC(4)3 (Molecular Probes) in a 96-well cell-based kinetic assay system, Fluorescent Imaging Plate Reader (FLIPR) (K. S. Schroeder et al., J. Biomed. Screen., v. 1 pp. 7581 (1996)), hereby incorporated by reference. DiBAC(4)3 is an anionic potentiometric probe which partitions between cells and extracellular solution in a membrane potential-dependent manner. With increasing membrane potential (for example, K^+ depolarization), the probe further partitions into the cell; this is measured as an increase in fluorescence due to dye interaction with intracellular lipids and proteins. Conversely, decreasing membrane potential (hyperpolarization by potassium channel openers) evokes a decrease in fluorescence.
Confluent guinea-pig urinary bladder cells cultured in black clear-bottomed 96-well plates were rinsed twice with […] assay buffer (composition, mM: HEPES, 20; NaCl, 120; KCl, 2; CaCl2, 2; MgCl2, 1; glucose, 5; pH 7.4 at 25° C.) containing 5 μM DiBAC(4)3 and incubated with […] of the buffer in a cell incubator for 30 minutes at 37° C. to ensure dye distribution across the membrane. After recording the baseline fluorescence for 5 minutes, the reference or test compounds, prepared at 10 times the concentration in the assay buffer, were added directly to the wells. Changes in fluorescence were monitored for an additional 25 minutes. Hyperpolarization responses were corrected for any background noise and were normalized to the response observed with 10 μM of the reference compound P1075 (assigned as 100%), a potent opener of smooth muscle KATP channels (Quast et al., Mol. Pharmacol., v. 43 pp. 474-481 (1993)).
Routinely, five concentrations of P1075 or test compounds (log or half-log dilutions) were evaluated and the maximal steady-state hyperpolarization values (expressed as % relative to P1075) plotted as a function of concentration. […]

| Compound | pEC50 ([1]; Landrace pig bladder strips) | pEC50 [2] | Emax ([1]; Landrace pig bladder strips) | Index ([1]; ED50 for P1075 divided by ED50 for the test agonist in a given tissue, averaged) | effect on stimulated twitch / stimulated contractions of the bladder ([1]; Landrace pig bladder strips, P1075 over 10^−9 to 10^−5 M) |
| --- | --- | --- | --- | --- | --- |
| Cc1ccc(C(=O)NC(Nc2c(Nc3cccnc3)c(=O)c2=O)C(C)(C)C)cc1 (centres unmarked) [Example 1, N-(1-{[3,4-dioxo-2-(3-pyridinylamino)-1-cyclobuten-1-yl]amino}-2,2-dimethylpropyl)-4-methylbenzamide] | 4.72 | 6.82 | 54% | – | – |
| CC(C)(C)C(NC(=O)c1ccc(I)cc1)Nc1c(Nc2cccnc2)c(=O)c1=O (centres unmarked) [Example 3, N-(1-{[3,4-dioxo-2-(3-pyridinylamino)-1-cyclobuten-1-yl]amino}-2,2-dimethylpropyl)-4-iodobenzamide] | 5.66 | – | 73% | – | – |
| COc1cc(OC)cc(C(=O)NC(Nc2c(Nc3cccnc3)c(=O)c2=O)C(C)(C)C)c1 (centres unmarked) [Example 13, N-(1-{[3,4-dioxo-2-(3-pyridinylamino)-1-cyclobuten-1-yl]amino}-2,2-dimethylpropyl)-3,5-dimethoxybenzamide] | 6.43 | – | 75% | – | – |
| CC(C)(C)C(NC(=O)c1cc(F)cc(F)c1)Nc1c(Nc2cccnc2)c(=O)c1=O (centres unmarked) [Example 16, N-(-1-{[3,4-dioxo-2-(3-pyridinylamino) 1-cyclobuten-1-yl]amino}-2,2-dimethylpropyl)-3,5-difluorobenzamide] | 5.42 | – | 94% | – | – |
| CCC(CC)(CCC#N)C(NC(=O)c1ccc(Cl)cc1)Nc1c(Nc2cccnc2)c(=O)c1=O (centres unmarked) [Example 19, 4-chloro-N-(4-cyano-1-{[3,4-dioxo-2-(3-pyridinylamino)-1-cyclobuten-1-yl]amino}-2,2-diethylbutyl)benzamide] | – | < 5.00 | – | – | – |
| C=CCOCC(CC)(COCC=C)C(NC(=O)c1ccc(Cl)cc1)Nc1c(Nc2cccnc2)c(=O)c1=O (centres unmarked) [Example 20, N-(2,2-bis[(allyloxy)methyl]-1-{[3,4-dioxo-2-(3-pyridinylamino)-1-cyclobuten-1-yl]amino}butyl)-4-chlorobenzamide] | – | 6.24 | – | – | – |
| CCC(CC)C(NC(=O)c1ccc(Cl)cc1)Nc1c(Nc2cccnc2)c(=O)c1=O (centres unmarked) [Example 21, 4-chloro-N-(1-{[3,4-dioxo-2-(3-pyridinylamino)-1-cyclobuten-1-yl]amino}-2-ethylbutyl)benzamide] | 5.40 | – | 68% | – | – |
| O=C(NC(Nc1c(Nc2cccnc2)c(=O)c1=O)C(F)(F)C(F)(F)F)c1cccc(Cl)c1 (centres unmarked) [Example 26, 3-chloro-N-(1-{[3,4-dioxo-2-(3-pyridinylamino)-1-cyclobuten-1-yl]amino}-2,2,3,3,3-pentafluoropropyl)benzamide] | 6.38 | – | 64% | – | – |
| CC(C)(C)C(NC(=O)c1ccc(Cl)cc1)Nc1c(Nc2cccnc2Cl)c(=O)c1=O (centres unmarked) [Example 29, 4-chloro-N-[1-({2-[(2-chloro-3-pyridinyl)amino]-3,4-dioxo-1-cyclobuten-1-yl}amino)-2,2-dimethylpropyl]benzamide] | 5.52 | – | 81% | – | – |
| CC(C)(Cc1ccccc1)C(NC(=O)c1ccc(Cl)cc1)Nc1c(Nc2cccnc2Cl)c(=O)c1=O (centres unmarked) [Example 31, 4-chloro-N-[1-({2-[(2-chloro-3-pyridinyl)amino]-3,4-dioxo-1-cyclobuten-1-yl}amino)-2,2-dimethyl-3-phenylpropyl]benzamide] | 5.54 | – | 76% | 0.039 | – |
| Cc1cccc(C(=O)NC(Nc2c(Nc3cccnc3Cl)c(=O)c2=O)C(C)(C)C)c1 (centres unmarked) [Example 32, N-[1-({2-[(2-chloro-3-pyridinyl)amino]-3,4-dioxo-1-cyclobuten-1-yl}amino)-2,2-dimethylpropyl]-3-methylbenzamide] | 5.89 | – | 99% | – | – |
| CC(C)(C)C(NC(=O)CCc1ccccc1)Nc1c(Nc2cccnc2)c(=O)c1=O (centres unmarked) [Example 36, N-(1-{[3,4-dioxo-2-(3-pyridinylamino)-1-cyclobuten-1-yl]amino}-2,2-dimethylpropyl)-3-phenylpropanamide] | 6.01 | – | 99% | – | – |
| CCC(C)(C)N=C(NC#N)Nc1cccnc1 [Example P1075, reference compound] | – | – | – | – | completely eliminated the stimulated twitch |

Second part, led by results:

| pEC50 ([1]; Landrace pig bladder strips) | pEC50 [2] | Compound | Emax ([1]; Landrace pig bladder strips) | Index ([1]; ED50 for P1075 divided by ED50 for the test agonist in a given tissue, averaged) | effect on stimulated twitch / stimulated contractions of the bladder ([1]; Landrace pig bladder strips, P1075 over 10^−9 to 10^−5 M) |
| --- | --- | --- | --- | --- | --- |
| 5.16 | 6.80 | CC(C)(C)C(NC(=O)c1ccc(Cl)cc1)Nc1c(Nc2cccnc2)c(=O)c1=O (centres unmarked) [Example 2, 4-chloro-N-(1-{[3,4-dioxo-2-(3-pyridinylamino)-1-cyclobuten-1-yl]amino}-2,2-dimethylpropyl)benzamide] | 79% | – | – |
| 6.42 | – | CC(C)(C)C(NC(=O)c1cccc(Cl)c1)Nc1c(Nc2cccnc2)c(=O)c1=O (centres unmarked) [Example 5, 3-chloro-N-(1-{[3,4-dioxo-2-(3-pyridinylamino)-1-cyclobuten-1-yl]amino}-2,2-dimethylpropyl)benzamide] | 98% | – | – |
| 6.00 | – | Cc1cccc(C(=O)NC(Nc2c(Nc3cccnc3)c(=O)c2=O)C(C)(C)C)c1 (centres unmarked) [Example 6, N-(1-{[3,4-dioxo-2-(3-pyridinylamino)-1-cyclobuten-1-yl]amino}-2,2-dimethylpropyl)-3-methylbenzamide] | 100% | – | – |
| 5.08 | – | CC(C)(C)C(NC(=O)c1cccc(F)c1)Nc1c(Nc2cccnc2)c(=O)c1=O (centres unmarked) [Example 7, N-(1-{[3,4-dioxo-2-(3-pyridinylamino)-1-cyclobuten-1-yl]amino}-2,2-dimethylpropyl)-3-fluorobenzamide] | 89% | – | – |
| 5.55 | – | CC(C)(C)C(NC(=O)c1cccc(I)c1)Nc1c(Nc2cccnc2)c(=O)c1=O (centres unmarked) [Example 8, N-(1-{[3,4-dioxo-2-(3-pyridinylamino)-1-cyclobuten-1-yl]amino}-2,2-dimethylpropyl)-3-iodobenzamide] | 84% | – | – |
| 5.59 | – | CC(C)(C)C(NC(=O)c1cc(Cl)cc(Cl)c1)Nc1c(Nc2cccnc2)c(=O)c1=O (centres unmarked) [Example 12, 3,5-dichloro-N-(1-{[3,4-dioxo-2-(3-pyridinylamino)-1-cyclobuten-1-yl]amino}-2,2-dimethylpropyl)benzamide] | 78% | – | – |
